Here are results for 20 compounds from patent publication US11878975B2, “Substituted indole compounds useful as TLR inhibitors” (BRISTOL-MYERS SQUIBB COMPANY, priority 2017, dated 2024).

Common to all, as to assay type: cell-based
One assay concerns the target T1, human TLR7 (Homo sapiens, UniProt Q9NYK1).
T1 construct: host or cells: HEK-Blue cells
T1 sequence (Q9NYK1 27-1049): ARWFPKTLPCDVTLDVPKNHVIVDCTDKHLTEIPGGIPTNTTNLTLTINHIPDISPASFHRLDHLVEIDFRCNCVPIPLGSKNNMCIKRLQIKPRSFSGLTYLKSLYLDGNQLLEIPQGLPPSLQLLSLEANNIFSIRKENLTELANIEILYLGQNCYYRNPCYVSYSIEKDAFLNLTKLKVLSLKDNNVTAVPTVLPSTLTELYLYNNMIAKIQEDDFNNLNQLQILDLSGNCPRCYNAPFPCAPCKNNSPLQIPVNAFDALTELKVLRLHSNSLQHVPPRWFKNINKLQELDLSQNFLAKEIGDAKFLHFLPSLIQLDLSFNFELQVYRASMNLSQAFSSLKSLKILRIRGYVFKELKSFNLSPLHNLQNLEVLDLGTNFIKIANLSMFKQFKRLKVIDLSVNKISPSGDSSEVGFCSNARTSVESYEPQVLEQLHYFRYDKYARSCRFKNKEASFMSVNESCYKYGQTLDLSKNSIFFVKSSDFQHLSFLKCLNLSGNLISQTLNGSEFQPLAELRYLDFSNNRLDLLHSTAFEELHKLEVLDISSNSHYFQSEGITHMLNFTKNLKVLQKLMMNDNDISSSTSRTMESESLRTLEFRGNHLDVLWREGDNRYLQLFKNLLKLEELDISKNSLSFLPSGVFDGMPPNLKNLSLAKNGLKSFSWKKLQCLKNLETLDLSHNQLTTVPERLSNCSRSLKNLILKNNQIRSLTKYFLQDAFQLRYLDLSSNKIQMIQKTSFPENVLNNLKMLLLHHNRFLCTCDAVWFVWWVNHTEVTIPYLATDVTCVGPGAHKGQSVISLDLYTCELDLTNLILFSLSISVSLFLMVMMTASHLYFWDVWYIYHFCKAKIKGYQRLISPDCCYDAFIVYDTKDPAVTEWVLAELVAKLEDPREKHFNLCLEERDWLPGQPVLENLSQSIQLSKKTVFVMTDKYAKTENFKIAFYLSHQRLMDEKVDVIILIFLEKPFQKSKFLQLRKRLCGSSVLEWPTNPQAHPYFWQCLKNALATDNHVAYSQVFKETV
As to the kind of experiment: TLR7 inhibition reporter assay (HEK-Blue cells, SEAP reporter, gardiquimod stimulation). The conditions noted are these: HEK-Blue cells overexpressing human TLR7, SEAP reporter, gardiquimod 7.5 μM. Put shortly:
(§1)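 Percent inhibition is derived from SEAP signal, scaled between agonist-plus-DMSO wells and wells given a known inhibitor. Test compounds (0.05 nM–50 μM) are pre-incubated 30 min at room temperature before agonist addition (TLR7: 7.5 μM gardiquimod; TLR8: 15.9 μM R848; TLR9: 5 nM ODN2006) and 22 h culture at 37 °C.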
A general note: A reporter such as luciferase makes a cellular process visible.

In a further assay the target is T2, human TLR9 (Homo sapiens, UniProt Q9NR96).
T2 construct: host or cells: HEK-Blue cells
T2 sequence (Q9NR96 26-1032): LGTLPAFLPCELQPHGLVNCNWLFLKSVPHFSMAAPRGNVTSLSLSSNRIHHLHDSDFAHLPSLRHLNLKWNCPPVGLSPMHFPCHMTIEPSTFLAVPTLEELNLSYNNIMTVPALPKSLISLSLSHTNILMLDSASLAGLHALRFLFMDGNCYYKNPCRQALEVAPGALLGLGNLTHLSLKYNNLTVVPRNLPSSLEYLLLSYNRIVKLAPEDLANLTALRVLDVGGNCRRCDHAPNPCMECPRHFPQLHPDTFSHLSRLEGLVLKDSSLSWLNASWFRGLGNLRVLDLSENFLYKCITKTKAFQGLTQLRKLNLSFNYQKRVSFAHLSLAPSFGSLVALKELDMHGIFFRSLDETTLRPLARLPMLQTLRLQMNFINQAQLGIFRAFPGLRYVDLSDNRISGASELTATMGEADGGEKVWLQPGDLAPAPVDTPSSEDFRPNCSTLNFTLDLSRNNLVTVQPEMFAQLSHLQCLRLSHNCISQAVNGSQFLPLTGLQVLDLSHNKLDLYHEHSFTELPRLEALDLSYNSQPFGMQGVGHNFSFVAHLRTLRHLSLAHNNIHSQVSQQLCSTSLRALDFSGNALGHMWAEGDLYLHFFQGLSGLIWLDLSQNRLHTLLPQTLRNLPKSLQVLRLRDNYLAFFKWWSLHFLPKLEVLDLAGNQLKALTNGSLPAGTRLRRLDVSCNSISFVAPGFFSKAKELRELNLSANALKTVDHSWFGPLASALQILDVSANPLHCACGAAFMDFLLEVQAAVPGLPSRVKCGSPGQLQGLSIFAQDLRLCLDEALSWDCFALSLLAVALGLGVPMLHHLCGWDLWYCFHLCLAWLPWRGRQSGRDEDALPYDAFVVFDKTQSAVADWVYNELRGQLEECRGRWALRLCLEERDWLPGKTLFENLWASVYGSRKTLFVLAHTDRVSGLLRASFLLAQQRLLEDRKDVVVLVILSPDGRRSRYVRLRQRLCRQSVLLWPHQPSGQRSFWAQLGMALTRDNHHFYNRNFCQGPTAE
Briefly: TLR9 inhibition reporter assay (HEK-Blue cells, SEAP reporter, ODN2006 stimulation). The settings on record: HEK-Blue cells overexpressing human TLR9, SEAP reporter, ODN2006 5 nM. Put shortly: as §1

A further assay concerns the target T3, human TLR8 (Homo sapiens, UniProt Q9NR97).
T3 construct: host or cells: HEK-Blue cells
T3 sequence (Q9NR97 27-1041): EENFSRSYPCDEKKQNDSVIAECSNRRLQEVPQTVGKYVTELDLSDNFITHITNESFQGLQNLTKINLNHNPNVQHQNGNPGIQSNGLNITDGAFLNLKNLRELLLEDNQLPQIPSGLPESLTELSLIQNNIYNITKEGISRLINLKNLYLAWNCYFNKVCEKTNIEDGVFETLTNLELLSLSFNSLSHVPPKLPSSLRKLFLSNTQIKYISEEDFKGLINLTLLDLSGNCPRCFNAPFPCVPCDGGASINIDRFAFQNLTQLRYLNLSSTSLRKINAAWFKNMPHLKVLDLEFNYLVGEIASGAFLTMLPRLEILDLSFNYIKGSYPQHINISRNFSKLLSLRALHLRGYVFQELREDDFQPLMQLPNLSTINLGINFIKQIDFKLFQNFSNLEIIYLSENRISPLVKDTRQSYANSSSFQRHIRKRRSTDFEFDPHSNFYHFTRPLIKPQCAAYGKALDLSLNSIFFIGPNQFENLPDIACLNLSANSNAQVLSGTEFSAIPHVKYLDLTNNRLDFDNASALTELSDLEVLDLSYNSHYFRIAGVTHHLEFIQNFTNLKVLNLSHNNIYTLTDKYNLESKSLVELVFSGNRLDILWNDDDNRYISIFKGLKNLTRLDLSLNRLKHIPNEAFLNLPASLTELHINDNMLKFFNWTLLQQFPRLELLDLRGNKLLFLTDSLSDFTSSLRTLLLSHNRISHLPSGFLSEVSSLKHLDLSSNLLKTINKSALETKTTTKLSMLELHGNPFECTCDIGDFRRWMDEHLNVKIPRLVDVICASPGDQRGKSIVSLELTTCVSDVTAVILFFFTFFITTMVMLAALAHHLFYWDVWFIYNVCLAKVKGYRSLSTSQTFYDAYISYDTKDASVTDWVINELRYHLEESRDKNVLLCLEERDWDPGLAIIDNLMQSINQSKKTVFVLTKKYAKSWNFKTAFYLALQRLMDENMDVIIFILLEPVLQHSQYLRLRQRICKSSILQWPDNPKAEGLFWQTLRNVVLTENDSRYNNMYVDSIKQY
As to the kind of experiment: TLR8 inhibition reporter assay (HEK-Blue cells, SEAP reporter, R848 stimulation). The settings on record: HEK-Blue cells overexpressing human TLR8, SEAP reporter, R848 15.9 μM. Put shortly:
as §1

One may read the IC50 as the midpoint of a concentration-inhibition curve. The low end stands for greater potency, the high end for weaker potency. `COc1cc(-c2[nH]c3ccc(C4CN(C(=O)CN(C)C)CCO4)cc3c2C(C)C)cn2ncnc12` (stereo not drawn) [Example 332]: the IC50 came out at 0.65 nM at human TLR7, 2800 nM at human TLR9 and 6.2 nM against human TLR8.
For `COc1cc(-c2[nH]c3ccc(C4CN(C(=O)CN(C)C)CCO4)cc3c2C(C)C)cn2ncnc12` (stereo not drawn) [Example 334] the same measures were 0.83 nM, 2750 nM and 3.1 nM.
`Cc1cc(-c2[nH]c3ccc(C4CN(C(=O)CN(C)C)CCO4)cc3c2C(C)C)cc(C)n1` (stereo not drawn) [Example 335]: the figures for the IC50 on human TLR7, on human TLR9 and at human TLR8 were 5 nM, 729 nM and 12 nM, respectively.
For `Cc1cc(-c2[nH]c3ccc(C4CN(C(=O)CN(C)C)CCO4)cc3c2C(C)C)cc(C)n1` (stereo not drawn) [Example 336] the same measures were 10 nM, 530 nM and 10 nM.
Taken in the same sequence, the figures for `CNCC(=O)N1CCOC(c2ccc3[nH]c(-c4cc(C)c5ncnn5c4)c(C(C)C)c3c2)C1` (stereo not drawn) [Example 337, 1-(2-(3-isopropyl-2-(8-methyl-[1,2,4]triazolo[1,5-a]pyridin-6-yl)-1H-indol-5-yl)morpholino)-2-(methylamino)ethanone] were 1 nM, 3280 nM and 7.1 nM.
For `CNCC(=O)N1CCOC(c2ccc3[nH]c(-c4cc(C)c5ncnn5c4)c(C(C)C)c3c2)C1` (stereo not drawn) [Example 338] the same measures were 0.78 nM, 2050 nM and 7.1 nM.
Consider `CNCC(=O)N1CCOC(c2ccc3[nH]c(-c4cc(OC)c5ncnn5c4)c(C(C)C)c3c2)C1` (stereo not drawn) [Example 339], for which the figures for the 50% inhibitory concentration (IC50) at human TLR7, at human TLR9 and against human TLR8 were 1 nM, 863 nM and 6 nM, respectively.
Taken in the same sequence, the figures for `CNCC(=O)N1CCOC(c2ccc3[nH]c(-c4cn5ncnc5c(C)c4C)c(C(C)C)c3c2)C1` (stereo not drawn) [Example 340] were 2 nM, 4830 nM and 5.1 nM.
Taken in the same sequence, the figures for `CNCC(=O)N1CCOC(c2ccc3[nH]c(-c4cn5ncnc5c(C)c4C)c(C(C)C)c3c2)C1` (stereo not drawn) [Example 341] were 2 nM, 5970 nM and 5 nM.
For `CNCC(=O)N1CCOC(c2ccc3[nH]c(-c4cc(OC)c5ncnn5c4)c(C(C)C)c3c2)C1` (stereo not drawn) [Example 342] the same measures were 3 nM, 1720 nM and 16 nM.
For `Cc1cc(-c2[nH]c3ccc(C4CN(CCS(C)(=O)=O)CCO4)cc3c2C(C)C)cn2ncnc12` (stereo not drawn) [Example 343, 2-(3-isopropyl-2-(8-methyl-[1,2,4]triazolo[1,5-a]pyridin-6-yl)-1H-indol-5-yl)-4-(2-(methylsulfonyl)ethyl)morpholine], the IC50 is 10 nM against human TLR7, greater than 50000 nM at human TLR9 and 34 nM against human TLR8.
Taken in the same sequence, the figures for `Cc1cc(-c2[nH]c3ccc(C4CN(CCS(C)(=O)=O)CCO4)cc3c2C(C)C)cn2ncnc12` (stereo not drawn) [Example 344] were 7 nM, greater than 50000 nM and 14 nM.
`COCCN1CCOC(c2ccc3[nH]c(-c4cc(OC)c5ncnn5c4)c(C(C)C)c3c2)C1` (stereo not drawn) [Example 345]: the figures for the IC50 against human TLR7, against human TLR9 and against human TLR8 were 6 nM, 8610 nM and 12 nM, respectively.
Regarding `Cc1c(-c2[nH]c3ccc(C4CN(CCS(C)(=O)=O)CCO4)cc3c2C(C)C)cn2ncnc2c1C` (stereo not drawn) [Example 346], the IC50 against human TLR7 is 25 nM; against human TLR9, greater than 50000 nM; against human TLR8, 24 nM.
Regarding `Cc1c(-c2[nH]c3ccc(C4CN(CCS(C)(=O)=O)CCO4)cc3c2C(C)C)cn2ncnc2c1C` (stereo not drawn) [Example 347], the IC50 against human TLR7 is 22 nM; against human TLR9 it was greater than 50000 nM; against human TLR8, 14 nM.
Taken in the same sequence, the figures for `Cc1cc(-c2[nH]c3ccc(C4CN(CCS(C)(=O)=O)CCO4)cc3c2C(C)C)cc(C)n1` (stereo not drawn) [Example 351] were 28 nM, 48300 nM and 31 nM.
Taken in the same sequence, the figures for `COCCN1CCOC(c2ccc3[nH]c(-c4cc(C)nc(C)c4)c(C(C)C)c3c2)C1` (stereo not drawn) [Example 352] were 42 nM, 3700 nM and 15 nM.
Taken in the same sequence, the figures for `Cc1cc(-c2[nH]c3ccc(C4CN(CCS(C)(=O)=O)CCO4)cc3c2C(C)C)cc(C)n1` (stereo not drawn) [Example 353] were 95 nM, greater than 50000 nM and 31 nM.
`Cc1cc(-c2[nH]c3ccc(C4CN(CC(C)(C)O)CCO4)cc3c2C(C)C)cn2ncnc12` (stereo not drawn) [Example 355, 1-(2-(3-isopropyl-2-(8-methyl-[1,2,4]triazolo[1,5-a]pyridin-6-yl)-1H-indol-5-yl)morpholino)-2-methylpropan-2-ol]: the IC50 on human TLR7 stood at 5 nM; on human TLR9, 28900 nM; against human TLR8, 1.4 nM.
For the compound `Cc1cc(-c2[nH]c3ccc(C4CN(CC(C)(C)O)CCO4)cc3c2C(C)C)cc(C)n1` (stereo not drawn) [Example 357], the IC50 amounted to 36 nM on human TLR7, 1970 nM against human TLR9 and 5.4 nM against human TLR8.
